The values that follow come from patent US10626109B2, “N-hetaryl(thio)carbonyl-2-(benzocycloalken-1-yl)cyclamines and their use as fungicides” (BAYER CROPSCIENCE AKTIENGESELLSCHAFT, priority 2013, dated 2020).

Each structure is given as a SMILES string. Marks after values point to notes of the source that are not given here.

One data set concerns Uromyces appendiculatus. Kind of data set: In vivo preventive test on Uromyces appendiculatus (bean rust). The conditions noted are these: for protection: in words, at a dose of 500 and 100 ppm of active ingredient. The method, then:
[table] The active ingredients are made soluble and homogenized in a mixture of Dimethyl sulfoxide/Acetone//Tween® 80 and then diluted in water to the desired concentration. The young plants of bean are treated by spraying the active ingredient prepared as described above. Control plants are treated only with an aqueous solution of Acetone/Dimethyl sulfoxide/Tween® 80. After 24 hours, the plants are contaminated by spraying the leaves with an aqueous suspension of Uromyces appendiculatus spores. The contaminated bean plants are incubated for 24 hours at 20° C. and at 100% relative humidity and then for 10 days at 20° C. and at 70-80% relative humidity. The test is evaluated 11 days after the inoculation. 0% means an efficacy which corresponds to that of the control plants while an efficacy of 100% means that no disease is observed.

Data set [1] is described as follows: log P by HPLC on reversed-phase column (C 18), EEC Directive 79/831 Annex V.A8. The conditions noted are these: Table 1, HPLC, 0.1% aqueous formic acid and acetonitrile, 40° C. It counts as physicochemical. The protocol:
In table 1, the log P values were determined in accordance with EEC Directive 79/831 Annex V.A8 by HPLC (High Performance Liquid Chromatography) on a reversed-phase column (C 18), using the method described below: Temperature: 40° C.; Mobile phases: 0.1% aqueous formic acid and acetonitrile; linear gradient from 10% acetonitrile to 90% acetonitrile. Calibration was carried out using unbranched alkan-2-ones (comprising 3 to 16 carbon atoms) with known log P values (determination of the log P values by the retention times using linear interpolation between two successive alkanones). lambda-max-values were determined using UV-spectra from 200 nm to 400 nm and the peak values of the chromatographic signals. In table 2, M+H (Apcl+) and log P are defined as for table 1.

The next data set deals with Puccinia recondita. Kind of data set: In vivo preventive test on Puccinia recondita (brown rust on wheat). The conditions noted are these: for Efficacy: Table C2; for protection: in words, at a dose of 500 and 100 ppm of active ingredient, analogues 11 and 13 in very similar conditions. The protocol:
[table] […] The young plants of wheat are treated by spraying the active ingredient prepared as described above. […] After 24 hours, the plants are contaminated by spraying the leaves with an aqueous suspension of Puccinia recondita spores. The contaminated wheat plants are incubated for 24 hours at 20° C. and at 100% relative humidity and then for 10 days at 20° C. and at 70-80% relative humidity. The test is evaluated 11 days after the inoculation. 0% means an efficacy which corresponds to that of the control plants while an efficacy of 100% means that no disease is observed.

Another data set concerns Sphaerotheca fuliginea. Kind of data set: In vivo preventive test on Sphaerotheca fuliginea (powdery mildew on cucurbits). The settings on record: for Efficacy: Table F1; for protection: in words, at a dose of 500 and 100 ppm of active ingredient, analogue 13 in very similar conditions. The protocol: [table] […] The young plants of gherkin are treated by spraying the active ingredient prepared as described above. […] After 24 hours, the plants are contaminated by spraying the leaves with an aqueous suspension of Sphaerotheca fuliginea spores. The contaminated gherkin plants are incubated for 72 hours at 18° C. and at 100% relative humidity and then for 12 days at 20° C. and at 70-80% relative humidity. The test is evaluated 15 days after the inoculation. 0% means an efficacy which corresponds to that of the control plants while an efficacy of 100% means that no disease is observed.

The mark [2] stands for this setting: second value of a mixture of two diastereoisomers.
[3] abbreviates: single value, or first value of a mixture of two diastereoisomers.
Where [4] appears, read: dose 100 ppm, formulated in DMF with 2% of alkylarylpolyglycolether.
[5] abbreviates: dose 500 ppm, formulated in DMF with 2% of alkylarylpolyglycolether.

As to `Cn1cc(C(=O)N2CCCC2C2CCCc3ccccc32)c(C(F)F)n1` (mixture of isomers) [I.27], the Efficacy turned out to be 56% in the data set with Uromyces appendiculatus (Table G2, dose 100 ppm) and 100% in the data set on Uromyces appendiculatus (Table G2, dose 500 ppm). For the same molecule, the protection result in the data set with Uromyces appendiculatus is on record as “total to average (at least 50%) protection”. Further, the logP in data set [1] (setting [2]) turned out to be 3.21; in data set [1] (setting [3]), 2.94.
`CC(CN(C(=O)c1c(C(F)F)nn(C)c1F)C1CC1)c1ccccc1` (stereo not shown) [13 from WO-2011/151369, N-cyclopropyl-3-(difluoromethyl)-5-fluoro-1-methyl-N-(2-phenylpropyl)-1H-pyrazole-4-carboxamide, reference compound]: the Efficacy with Puccinia recondita (setting [4]) was 10 ^(a) %; in the data set on Puccinia recondita (setting [5]) it was 40 ^(a) %; in the data set with Sphaerotheca fuliginea (setting [4]), 3 ^(a) %; in the data set on Sphaerotheca fuliginea (setting [5]), 63 ^(a) %. In addition, the figures for the protection entry with Puccinia recondita (wheat) and in the data set on Sphaerotheca fuliginea (gherkin) were “poor (less than 40%) to no protection” and “average (at least 60%) to poor (less than 10%) protection”, respectively.
For the molecule `Cc1nn(C)c(F)c1C(=O)N(C1CC1)C(C)C1CCCc2ccccc21` (stereo not shown) [I.2 from WO-2010/086311, N-cyclopropyl-5-fluoro-1,3-dimethyl-N-[1-(1,2,3,4-tetrahydronaphthalen-1-yl)ethyl]-1H-pyrazole-4-carboxamide, reference compound], the Efficacy in the data set with Uromyces appendiculatus (Table G2, dose 100 ppm) amounted to 0%; in the data set with Uromyces appendiculatus (Table G2, dose 500 ppm), 88%. Besides, the protection result in the data set on Uromyces appendiculatus is recorded as “high (at least 80%) to no protection”.
Take `Cn1nc(C(F)F)c(C(=O)N2CCCC2C2CCCc3ccccc32)c1F` (mixture of isomers) [I.26]: the Efficacy in the data set on Puccinia recondita (dose 100 ppm, wheat) was 88%; in the data set on Puccinia recondita (dose 500 ppm, wheat), 98%; with Uromyces appendiculatus (Table G1, dose 100 ppm), 100%; in the data set with Uromyces appendiculatus (Table G1, dose 500 ppm) it was 100%; in the data set with Uromyces appendiculatus (Table G2, dose 100 ppm) it was 100%; with Uromyces appendiculatus (Table G2, dose 500 ppm), 100%. Also, the Efficacy in the data set on Sphaerotheca fuliginea (dose 100 ppm, gherkin) is given as 100%; in the data set with Sphaerotheca fuliginea (dose 500 ppm, gherkin), 100%. Besides, the protection entry was “excellent (at least 90%) to high (at least 80%) protection” in the data set on Puccinia recondita (wheat), “total protection” in the data set on Uromyces appendiculatus, “total to average (at least 50%) protection” with Uromyces appendiculatus (listed as 1.26) and “total protection” with Sphaerotheca fuliginea (gherkin). For the same molecule, the logP in data set [1] (setting [2]) is 3.61; in data set [1] (setting [3]) it was 3.48.
Take `CCC(c1ccccc1)C1CCCN1C(=O)c1c(C(F)F)nn(C)c1F` (stereo not shown) [53 from WO2012/052491, [3-(difluoromethyl)-5-fluoro-1-methyl-1H-pyrazol-4-yl][2-(1-phenylpropyl)pyrrolidin-1-yl]methanone, reference compound]: the Efficacy in the data set on Uromyces appendiculatus (Table G1, dose 100 ppm) was determined as 0%; with Uromyces appendiculatus (Table G1, dose 500 ppm), 77%. In addition, the protection result in the data set on Uromyces appendiculatus was “good (at least 70%) to no protection”.
